Assay [1] has as its system B. napus cells. The assay is described as follows: Quantification of fatty acid uptake from 13C-oleoyl-Tween by B. napus cells. As to conditions: 10 mM 13C-oleoyl-Tween. The assay is classed as cell-based, Brassica napus. The protocol: Lipids were extracted from up to 100 mg fresh weight of frozen cells by homogenizing twice in 500 μL of methanol:chloroform:formic acid (20:10:1 v/v) using glass beads. The combined organic solvent was extracted with 500 μL of 1 M KCl, 0.2 M H3PO4 and the organic phase was recovered, dried under N2, and resuspended in hexane. Lipid classes were separated by TLC using silica gel G TLC Uniplates (Analtech, Newark, Del., USA) with hexane:diethylether:acetic acid (80:20:1, v/v) for neutral lipids or with acetone:toluene:water (91:30:7 v/v) with 0.15 M ammonium sulfate impregnated plates for polar lipids. Loading was equivalent to 10 or 20 mg fresh weight. Lipids were visualized with iodine vapor.
Fatty acid quantification was done by analysis of fatty acid methyl esters (FAMEs). […] FAMEs resuspended in hexane were analyzed with an HP6890 gas chromatograph-flame ionization detector (Agilent Technologies) or an HP5890 gas chromatograph-mass spectrometer (Hewlett-Packard) fitted with 60 m×250 μm SP-2340 capillary columns (Supelco). […]
1-^13C-oleic acid was obtained from Cambridge Isotope Laboratories (Andover, Mass., USA). […] Lipid extraction and GC/MS was done as described above. ^13C-fatty acids were detected and quantified and corrected for natural isotope abundance as previously described (Schwender et al. 2003, J Biol Chem, 278, 29442-29453). […]

Assay [2] deals with B. napus cells. The assay is described as follows: Quantification of free fatty acid, acyl-ACP and acyl-CoA pools in cells. The assay is classed as cell-based, Brassica napus. As to conditions: cells fed 13C-oleoyl-Tween, at 3 hours. The protocol: Free fatty acids were extracted from tissue by quenching ˜300 mg of frozen cells in 2 mL boiling isopropanol for 5 min. Once cooled, 2 mL of 0.9% NaCl was added and lipids were extracted twice with 4 mL of hexane. Neutral lipids were separated by TLC and free fatty acids were scraped, made into FAMEs, and analyzed by GC-FID or GC-MS as described above. Acyl-CoAs were extracted from ˜15 mg FW of cells and quantified as previously described (Larson and Graham 2001, Plant J, 25, 115-125). Acyl-ACPs were extracted and quantified as previously described (Kopka, Ohlrogge and Jaworski 1995, Anal Biochem, 224, 51-60) with the following modifications: 1) Internal standards used were 11:0-CoA (Sigma) and 17:0—ACP made from Spinach ACP as previously described (Broadwater and Fox 1999, Protein Expr Purif, 15, 314-326). 2) Fully dissolving TCA precipitated proteins required three extractions with MOPS buffer rather than just one.
1986 Plant Physiol, 82, 771-779). Free fatty acids can be activated by esterification to CoA or ACP before being deposited in cellular lipids. Steady state pools acyl-ACP and acyl-CoA as well as free fatty acids (FFA) were measured in cells fed Tween-80. After three hours of feeding, 18:1 FFA appeared where there was none detected in untreated cells (FIG. 9a). […] In a separate experiment designed to distinguish the incorporation of fatty acids from Tween from secondary effects of feedback inhibition, FFA and acylACPs were analyzed in cells fed ^13C-oleoyl-Tween. […] First, the in vivo concentrations of these intermediates were calculated based on the range of values in FIG. 9 and the water content of the cells. […] However, considering that acyl-ACPs are restricted to the plastid, the volume of which in developing embryos was determined to be 10% of the cell (Mansfield and Briarty 1992, Can J Bot, 70, 151-164), the estimate increased to 5-10 μM. […] Thioesterase activity was measured using the same conditions as the ACCase assay. […]

The test system of another assay is ACCase. The assay is described as follows: ACCase enzyme assay on crude cell extracts. The assay is classed as biochemical, Brassica napus. Here is the method:
All chemicals were obtained from Sigma and radioisotopes from American Radiolabeled Chemicals. ACCase activity was measured as the acetyl-CoA dependent incorporation of ^14C—NaHC03 into acid and stable products. Crude cell extracts were prepared by grinding fresh cells in 3 volumes (w/v) of 50 mM Tris-Cl, pH 7.5, 100 mM KCl, 5 mM MgCl2, 1 mM DTT, 0.1% TritonX-100, 10% glycerol, and plant protease inhibitor cocktail (Sigma). Homogenate was gently mixed on ice for 10 min and then centrifuged for 5 min at 3000 g. Desalting of extracts was done with PD-10 columns (GE Life Sciences). […] Reactions were initiated by the addition of 5 μlL cell extract and were stopped by the addition of 15 μL 12 N HCL. The contents were dried completely at 55° C. and the solids were resuspended in 30 μL water and counted by liquid scintillation spectroscopy. Minus acetyl-CoA controls were always included. Assays went for 30 min, except when measuring the effects of metabolites (10 min). Metabolites were added to the reaction immediately after cell extract to preserve labile thioester bonds. FFA stock solutions were made in ethanol and acyl-CoAs were suspended in water.

In assay [3] the test system is fatty acid synthesis in B. napus cells. In words: 14C-acetate / 14C-malonate labeling of lipids (feedback inhibition of fatty acid synthesis). The assay is classed as cell-based, Brassica napus. The note with it: for Relative 14C-acetate incorporation (% control): relative to a control sample without any Tweens, mean of three repeats ± SD. The protocol: All radioisotopes were obtained from American Radiolabeled Chemicals (St. Louis, Mo. USA). Labeling was conducted on cells 5 days after subculturing with a culture density of ˜20 mg FW mL^−1 and that had medium refreshed 16 h prior. For labeling, three 1 mL aliquots of cells were carefully removed from each flask and were labeled with either 0.2 μCi of 1,2-^14C-acetate (50-60 mCi mmol^−1) or 2-^14C-malonate (40-60 mCi mmol^−1) for 15 minutes at 25° C. with occasional shaking. Haloxyfop (Sigma) was dissolved in DMSO and added 30 min prior to labeling. Lipids were extracted and separated by TLC as described above. Radioactivity was detected by phosphorimaging and was quantified using ImageQuant software (GE Healthcare, Piscataway, N.J., USA). Incorporation of label into individual fatty acids was determined by making FAMEs as described above, separating the methyl esters by TLC as described in (Koo, Fulda, Browse and Ohlrogge 2005, Plant J, 44, 620-632) and measuring radioactivity by phosphorimaging.
Feedback inhibition of fatty acid synthesis was measured by the addition of a ^14C-acetate tracer. […] Sterol synthesis is dependent on acetyl-CoA and ATP, both of which are required for fatty acid synthesis. Therefore, if fatty acid synthesis is inhibited due to substrate limitation; so should be sterol biosynthesis. ^14C-acetate incorporation into sterols was unaffected by Tween-80 feeding, while incorporation into free fatty acids mirrored that of total lipids (FIG. 5), showing that the effect is restricted to fatty acid synthesis. […] Three hour time points were used for the remainder of this study to separate the period of maximum feedback inhibition from any lipid homeostatic mechanisms arising from the gross fatty acid compositional changes caused by long term Tween-80 feeding.
Plants contain plastidic and cytosolic ACCase and F AS enzyme systems, both of which are capable of incorporating ^14C-acetate into fatty acids. Comparing the distribution of label in individual fatty acid species can therefore provide information on the relative contribution of these pathways. […] The degree to which ^14C-acetate incorporation is inhibited by haloxyfop is proportional to cytosolic elongation activity, whereas haloxyfop-resistant incorporation is from the de nova pathway inside the plastid.
To separate these possibilities, we exploited the fact that exogenous malonate can be converted to malonyl-CoA and used by FAS, bypassing the ACCase reaction (Kannangara et al. 1973, Plant Physiol, 52, 156-161). If ACCase is the only point of inhibition then the rate of ^14C-malonate labeling of de novo fatty acids should be the same in cultures with or without Tween-80. […] Therefore ACCase, and not F AS, is inhibited by Tween-80 feeding. When combined, the data from FIG. 6 unambiguously identify plastidic ACCase as the target of Tween-80 induced feedback inhibition.

Assay [4] addresses Brassica napus plastidic (heteromeric) acetyl-CoA carboxylase, endogenous enzyme in crude cell extracts (Brassica napus). In words: cell-based or functional assay.

Some results are limits rather than exact numbers.

For the molecule 1-^13C-oleoyl-Tween, the “13C-18:1 as proportion of the total 18:1” value in the assay with B. napus cells [1] (after three hours) was “about 10%”. Further, the “proportion of 13C-label in 18-carbon fatty acids” value in the assay on B. napus cells [1] (by 48 hours) was “about 70%”. Further, in the assay with B. napus cells [2], the “percent of 18:1-ACP containing 13C-oleic acid” value amounted to 46.2±4.2% and the “percent of 18:1 FFA containing 13C-oleic acid” value is given as 99.1±2.2%. Consider `O=C(O)CCC(=O)C(=O)O` [2-oxoglutarate], for which the “ACCase activity, difference between control and Tween-80 fed cultures” value with ACCase (in the presence of 5 mM 2-oxoglutarate) was “no differences”. On to `CCCCCCCC/C=C\CCCCCCCC(=O)SCCNC(=O)CCNC(=O)[C@H](O)C(C)(C)COP(=O)(O)OP(=O)(O)OC[C@H]1O[C@@H](n2cnc3c(N)ncnc32)[C@H](O)[C@@H]1OP(=O)(O)O` [18:1-CoA, 18:1-Coenzyme A], for which the “extent of ACCase inhibition” value in the assay on ACCase (crude extract, physiological range of concentrations) is “partial”.

In the case of `CC(Oc1ccc(Oc2ncc(C(F)(F)F)cc2Cl)cc1)C(=O)O` (centres unmarked) [haloxyfop], in the assay with ACCase (crude extracts treated with haloxyfop), the “reduction in ACCase activity” value is “about 15%”. Turning to `O=C(O)CC(=O)O` [malonate], the “inhibition of 14C-acetate incorporation on malonate feeding” value in assay [3] (malonate feeding) is given as “does not cause inhibition”.

Regarding “B. napus 18:1-ACP (18:1-Acyl Carrier Protein made from BnACP, GenBank:X13127.1, with 6x his-tag)”, the ACCase activity in crude B. napus cell extracts (acetyl-CoA dependent incorporation of 14C-NaHCO3, 10 min assay) in assay [4] was more than 3 µM. With Tween-18:1, the “inhibition of acetate labeling of lipids” value in assay [3] (in words) is listed as “maximum inhibition”. Also, the “Relative 14C-acetate incorporation (% control)” value in assay [3] is recorded as 51.5 ± 6.7 % control. With Tween-40, in assay [3], the “Relative 14C-acetate incorporation (% control)” value stood at 84.4 ± 3.4 % control. Still for that read-out and setting: next, Tween-60: 85.9 ± 3.4 % control; Tween-85: 48.8 ± 5.9 % control.

For the origin of these results see patent US20140230091A1, “MODIFIED PLANTS WITH INCREASED OIL CONTENT” (BROOKHAVEN SCIENCE ASSOCIATES, LLC, priority 2011, published 2014).
